Source: PubChem BioAssay (NCI)
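Tested at 5 concentrations; 48 h exposure; 96-well plates; endpoints linearly interpolated, else capped at highest concentration. The concentration for full growth arrest is given as TGI.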

How the values were obtained:
Experiment in all cases: DTP human tumour cell line panel, 48 h
SR leukemia = test system: SR leukemia
SF-295 CNS = test system: SF-295 CNS
HCT-15 colon = test system: HCT-15 colon
SF-539 CNS = test system: SF-539 CNS
NCI-H226 lung = test system: NCI-H226 lung
SF-268 CNS = test system: SF-268 CNS
UO-31 renal = test system: UO-31 renal
HL-60(TB) leukemia = test system: HL-60(TB) leukemia

Structure (SMILES)	TGI (SR leukemia)	TGI (SF-295 CNS)	TGI (HCT-15 colon)	TGI (SF-539 CNS)	TGI (NCI-H226 lung)	TGI (SF-268 CNS)	TGI (UO-31 renal)	TGI (HL-60(TB) leukemia)
CC1=C(CC2C(=O)N(c3ccccc3)S(=O)(=O)NC2C)C(=O)N(c2ccccc2)S(=O)(=O)N1C (stereo not given)	> 100 µM	> 100 µM	> 100 µM	> 100 µM	> 100 µM	> 100 µM	> 100 µM	–
CCCC(S(=O)(=O)c1ccccc1)S(=O)(=O)c1ccccc1	–	> 100 µM	> 100 µM	> 100 µM	> 100 µM	–	> 100 µM	> 100 µM
NC1=NC(=O)C(CC(=O)Nc2ccc(Cl)cc2Cl)S1 (stereo not given)	–	> 100 µM	> 100 µM	> 100 µM	–	> 100 µM	> 100 µM	–
O=C1C=C(O)C(=Cc2c(O)cc(O)cc2O)C(O)=C1	> 100 µM	> 100 µM	> 100 µM	> 100 µM	> 100 µM	> 100 µM	> 100 µM	> 100 µM
O=C1c2ccccc2N2OC3(N4CCCC4)CCCCC3C12c1ccccc1 (stereo not given)	> 100 µM	32.7 µM	> 100 µM	80.5 µM	> 100 µM	33.7 µM	> 100 µM	53.7 µM
CC1=C(C(=O)Nc2ccc(Cl)c(Cl)c2)C(c2ccc([N+](=O)[O-])cc2)C(C(=O)Nc2ccc(Cl)c(Cl)c2)=C(C)N1	–	9.24 µM	7.88 µM	12.1 µM	11.6 µM	14.8 µM	10.6 µM	–
c1ccc2c(c1)CCc1c-2n[nH]c1-c1[nH]nc2c1CCc1ccccc1-2	> 100 µM	> 100 µM	> 100 µM	> 100 µM	> 100 µM	> 100 µM	> 100 µM	> 100 µM
COc1cc(C2(C)SCCCS2)cc(OC)c1OC	> 100 µM	> 100 µM	> 100 µM	> 100 µM	> 100 µM	> 100 µM	> 100 µM	> 100 µM
COc1ccc(OC(=O)CC2Cc3cc(OC)c(OC)c(OC)c3-c3ccc(SC)c(=O)cc32)cc1 (stereo not given)	> 100 µM	–	> 37.7 µM	0.54 µM	0.782 µM	> 100 µM	> 100 µM	2.35 µM
CCOc1ccc(NC(=O)CCc2nnc(SC)o2)cc1	> 100 µM	> 100 µM	> 100 µM	> 100 µM	> 100 µM	> 100 µM	> 100 µM	> 100 µM
CC(=O)/C(=C\c1ccccc1O)C(=O)Nc1ccccc1C	48.1 µM	76.2 µM	45.3 µM	42.2 µM	62.4 µM	> 100 µM	31 µM	41.8 µM
Cc1ccccc1-n1c(N)c(-c2nc3ccccc3[nH]2)sc1=S	–	42.4 µM	71.7 µM	41.1 µM	74.4 µM	69.6 µM	45.6 µM	66.6 µM
COc1ccc(-c2cc(=O)c3c(O)cccc3o2)c(OC)c1OC	–	> 100 µM	> 100 µM	86.9 µM	> 100 µM	> 100 µM	–	> 100 µM
COc1ccc(-c2[nH]c3ccccc3c2CCNS(=O)(=O)c2ccc(C)cc2)cc1	> 10 µM	> 10 µM	> 10 µM	> 10 µM	> 10 µM	> 10 µM	> 10 µM	> 10 µM
O=C(NCCNCCO)c1cccc2ccc(-c3ccccc3)nc12	–	18.9 µM	14.8 µM	13 µM	17.4 µM	19 µM	12 µM	> 100 µM
O=C(O)CCNS(=O)(=O)c1ccc([N+](=O)[O-])cc1	–	> 100 µM	> 100 µM	> 100 µM	> 100 µM	> 100 µM	> 100 µM	> 100 µM
N#CNc1nc(N)c(-c2ccc(Cl)cc2)c(C(=O)Nc2nccs2)n1	–	> 100 µM	> 100 µM	> 100 µM	> 100 µM	> 100 µM	> 100 µM	> 100 µM
O=Cc1ccc2c(c1I)OCO2	> 100 µM	> 100 µM	> 100 µM	> 100 µM	> 100 µM	–	> 100 µM	> 100 µM
O=C(/C=C/c1ccc(Cl)c(Cl)c1)c1cccc2ccccc12	–	24.5 µM	7.12 µM	7.14 µM	28.3 µM	14.2 µM	33.8 µM	7.21 µM
O=C(Cc1nc2ccccc2o1)C(=O)Nc1cccc(C(F)(F)F)c1	–	> 100 µM	> 100 µM	> 100 µM	> 100 µM	> 100 µM	> 100 µM	> 100 µM
Cc1cc2c(c(C(N)=O)c1C)-c1cc(Cl)cc(Cl)c1C2=O	–	> 100 µM	> 100 µM	> 100 µM	–	> 100 µM	> 100 µM	> 100 µM
O=C1OC(=O)c2c1c(-c1ccccc1)nc1ccccc21	–	> 100 µM	> 100 µM	> 100 µM	> 100 µM	> 100 µM	> 100 µM	> 100 µM
CC(C)(C)c1cc2nc(c1)C(C(F)(F)F)(C(F)(F)F)OB(Br)OC2(C(F)(F)F)C(F)(F)F	–	3.4 µM	13.8 µM	7.31 µM	–	17.8 µM	2.72 µM	–
